From patent US7186521B2, “Determining the effect of a substance on sequestration, uptake, and accumulation of amyloid in brain cells” (The Regents of the University of California, priority 2000, dated 2007)
“Also recorded” adds a separate entry of the source. Ends that are not written are not given here.

Key:
[1] = system: cultured hippocampal slices; experiment: Aβ1–42 uptake/internalization in cultured hippocampal slices (Aβ1–42 immunocytochemistry, NIH Image quantification); assay type: cell-based, Sprague-Dawley rat; conditions: for number of Aβ-ir particles within the sample field / size (average area) of individual Aβ-ir particles / total area encompassed by Aβ-ir elements: CA1b stratum pyramidale; for number of Aβ-ir particles within the sample field: Aβ1–42 plus antagonist vs Aβ alone (FIG. 4G), significant for GRGDSP only; for size (average area) of individual Aβ-ir particles / total area encompassed by Aβ-ir elements: Aβ1–42 plus antagonist; for size (average area) of individual Aβ-ir particles: mean±sem relative to Aβ alone (FIG. 4E); for total area encompassed by Aβ-ir elements: mean±sem relative to Aβ alone (FIG. 4F); for effect on sequestration/uptake/internalization of Aβ1–42: co-incubated with Aβ1–42, 6 days, GRGDSP and GRADSP 2 mM, echistatin 2 μM; for slices with intraneuronal Aβ1–42 immunostaining: Aβ1–42 plus antagonist (GRGDSP 2 mM; echistatin 2 μM)
Method: (§1) Organotypic hippocampal cultures were prepared using the technique of Stoppini et al. (1991). Briefly, hippocampi were harvested from brains of 9–12 days old Sprague-Dawley rat pups under sterile conditions. Sections were cut (400 μm thick) perpendicular to the long axis of hippocampus using a Mclllwain tissue chopper and were collected into a cutting medium consisting of MEM with Earle's salts (Gibco, Rockville Md.), 25 mM HEPES, 10 mM Tris base, 10 mM glucose, and 3 mM MgCl2 (pH 7.2). Slices were positioned onto 30 mm cell culture inserts (Millicell-CM, Millipore, Bedford, […].) that were placed in 6 well culture trays with 1 ml of growth medium per well [growth medium: MEM with Hank's salts (Gibco), 20% horse serum, 3 mM glutamine, 25 mM HEPES, 5 mM NaHCO3, 25 mM glucose, 0.5 mM ascorbate, 2 mM CaCl2, 2.5 mM MgCl2, 0.5 mg/1 insulin, and penicillin, pH 7.2]. The cultures were incubated at 35° C. with a 5% CO2-enriched atmosphere and the media was changed every other day until use 10–12 days later.
(§2) Cultured hippocampal slices were exposed to media containing the human Aβ1–42 sequence in the presence or absence of the integrin antagonist peptide, Gly-Arg-Gly-Asp-Ser-Pro, or GRGDSP (SEQ. ID. No.3) (2 mM dissolved in media) (Ruoslahti, E., Ann Rev Cell Dev Biol 12:697–715 (1996)). In some cases, slices were co-treated with the specific NMDA receptor antagonist 2-amino-5-phosphonovalerate (AP5) (Sigma) at 50 μM. Control slices in neighboring wells received media-vehicle only. Aβ1–42 peptide solution was freshly prepared before the start of the experiment using 0.1N NaOH, pH adjusted with 0.1N HCl to 7.4, and then diluted with serum-free culture medium. Aβ was applied at 30 μM for 8–10 hr after which it was diluted to 15 μM by the addition of fresh culture media containing heated treated horse serum. Treatment was repeated every other day for a total 6 days. Disintegrins are small (4–10 kDa) RGD-containing, cysteine-rich peptides from snake venom that bind integrins with high affinity (Kd˜1 nM–0.1 μM) and are potent antagonists of integrin functions (Huang, T. F., Cell Mol Life Sci 54:527–540 (1998)for review). In some experiments the disintegrin echistatin (2 μM dissolved in media) was applied instead of GRGDSP (SEQ. ID. No.3).
(§3) The following treatment, slices were thoroughly washed with 0.1M sodium phosphate buffered saline (PBS), fixed for 12–16 hr in cold 0.1M phosphate buffer (PB; pH 7.2) containing 4% paraformaldehyde, cryoprotected in 20% sucrose/PB for 1–2 hr and then carefully removed from the insert membranes. Serial sections were cut at 25 μm thick, parallel to the broad face of the explant, using a freezing microtome. Immunocytochemistry was performed using the standard avidin biotin horseradish peroxidase complex (ABC) method using reagents and instructions of the VECTASTAIN® Elite ABC kit from Vector Laboratories (Burlingame, Calif.) with diaminobenzidine tetrahydrochloride (0.05% in 50 mM Tris-HCl buffer, pH 7.4) as chromagen and PBS for rinses and as diluent for antibody incubations. Briefly, free-floating sections were preincubated with 3% normal goat serum (for anti-Aβ1–42 and anti-cathepsin D antibodies) or 10% normal horse serum (for ED-1) in PBS for 1 hr at room temperature. […] Sections were washed in PBS, incubated in biotinylated anti-rabbit or anti-mouse IgG (both at 1:200) for 2–3 hr, washed in PBS, incubated in the avidin-biotin complex solution for 45 min and then processed through the diaminobenzidine reaction. After final rinses in PBS, sections were mounted on SuperFrost Plus slides (Fisher Scientific, Pittsburgh), air-dried, dehydrated in a series of graded ethanols, and coverslipped from Clearing Solvent (Stephens Scientific, Kalamazoo, Mich.) with Permount (Fisher).
Images centered on CA1b stratum pyramidale were obtained at 40× objective magnification using a Sony DKC-5000 digital camera attached to a Zeiss Universal microscope. […]

[2] = system: integrin binding to fibronectin and vitronectin; conditions: literature; used as inactive control peptide; cited from earlier work
cathepsin D = experiment: Cathepsin D immunoreactivity in cultured hippocampal slices; assay type: cell-based, Sprague-Dawley rat
Method: as §1, §2
The following treatment, slices were thoroughly washed with 0.1M sodium phosphate buffered saline (PBS), fixed for 12–16 hr in cold 0.1M phosphate buffer (PB; pH 7.2) containing 4% paraformaldehyde, cryoprotected in 20% sucrose/PB for 1–2 hr and then carefully removed from the insert membranes. Serial sections were cut at 25 μm thick, parallel to the broad face of the explant, using a freezing microtome. […]

reactive microglia = experiment: Microglial activation (ED-1 immunoreactivity) in cultured hippocampal slices; assay type: cell-based, Sprague-Dawley rat; conditions: for number of ED-1 positive cells: treatment by itself; for effect on ED-1-ir microglia: 50 μM AP5 with Aβ1–42 and 2 mM GRGDSP, 6 days
Method: as §1, §2
as §3, with “After final rinses in PBS, sections were mounted on SuperFrost Plus slides (Fisher Scientific, Pittsburgh), air-dried, dehydrated in a series of graded ethanols, and coverslipped from Clearing Solvent (Stephens Scientific, Kalamazoo, Mich.) with Permount (Fisher).” left out

CHO cells = CHO cells in culture; Matter et al. 1998; cited from earlier work
[3] = system: LTP stabilization in field CA1 of hippocampus; conditions: injection of 5 μM echistatin; Chun et al., 2001; cited from earlier work
RGD-binding integrins = experiment: cell-based or functional assay
[4] = Aβ + antagonist co-incubation, 6 days, count out of slices tested (61, 16, 21, 16), RGD and RAD 2 mM, Ech 2 μM
[5] = treatment alone, 6 days, count of slices with Aβ-ir out of number of slices tested (Aβ 45, RGD 14)
[6] = treatment alone, 6 days (GRGDSP 2 mM)
[7] = 50 μM AP5 with Aβ1–42 and 2 mM GRGDSP, 6 days

GRADSP
Aβ positive cases [1, 4]: 9 | number of Aβ-ir particles within the sample field [1]: did not cause significant changes | size (average area) of individual Aβ-ir particles [1]: did not cause significant changes | total area encompassed by Aβ-ir elements [1]: did not cause significant changes | effect on sequestration/uptake/internalization of Aβ1–42 [1]: did not measurably affect sequestration of Aβ1–42; also recorded: modest | antagonism of integrin binding to fibronectin and vitronectin [2]: very weak antagonist

Gly-Arg-Gly-Asp-Ser-Pro [GRGDSP]
slices with intraneuronal Aβ1–42 immunostaining ([1]; 6 days): More than 88% | number of Aβ-ir particles within the sample field [1]: increased the numbers of Aβ-ir particles | size (average area) of individual Aβ-ir particles [1]: +101±13% | total area encompassed by Aβ-ir elements [1]: 324±16% | effect on sequestration/uptake/internalization of Aβ1–42 [1]: markedly increase sequestration of the exogenous peptide; also recorded: markedly enhances uptake in cultured hippocampal slices; also recorded: enhanced; also recorded: increased the uptake of Aβ1–42 peptide | induction of Aβ-ir ([1]; peptide by itself, without Aβ1–42): did not induce Aβ-ir | Aβ positive cases [1, 5]: 0 | cathepsin D-ir (cathepsin D; Aβ1–42 plus 2 mM GRGDSP, 6 days): generated intense intraneuronal cathepsin D-ir; also recorded: elevated | cathepsin D-ir (cathepsin D; [6]): did not increase cathepsin D-ir | microglial response (ED-1-ir) (reactive microglia; Aβ1–42 and GRGDSP applied together): produced a pronounced microglial response | number of ED-1 positive cells (reactive microglia): did not cause a noticeable increase in the number of ED-1 positive cells | effect on binding and uptake of Aβ (CHO cells): block the binding and uptake of Aβ in CHO cells

NC(CCCP(=O)(O)O)C(=O)O (stereo not shown) [AP5, 2-amino-5-phosphonovalerate]
effect on GRGDSP-enhanced Aβ1–42 uptake [1, 7]: completely blocked Aβ1–42 uptake; also recorded: completely eliminated Aβ uptake | effect on cathepsin D-ir (cathepsin D; [7]): almost totally suppressed; also recorded: suppressed cathepsin D-ir | effect on ED-1-ir microglia (reactive microglia): ED-1-ir (C′) to vehicle control levels | effect on ED-1-ir microglia (reactive microglia; listed as AP-5): greatly reduced

echistatin (QCESGPCCRNCKFLKEGTICKRARGDDMDDYCNGKTCDCPRNPHKGPAT)
slices with intraneuronal Aβ1–42 immunostaining ([1]; 6 days): 86% | Aβ positive cases [1, 4]: 18 | number of Aβ-ir particles within the sample field [1]: increased the numbers of Aβ-ir particles | size (average area) of individual Aβ-ir particles [1]: +95±13% | total area encompassed by Aβ-ir elements [1]: 233±24% | effect on sequestration/uptake/internalization of Aβ1–42 [1]: significantly enhanced Aβ internalization; also recorded: increased the uptake of Aβ1–42 peptide | effect on LTP stabilization [3]: selectively disrupts LTP stabilization

Aβ1–42: human amyloid beta peptide, 42-residue form, applied exogenously to slices
slices with intraneuronal Aβ1–42 immunoreactivity (Aβ-ir) ([1]; Aβ1–42 alone, 6 days): 42% | Aβ positive cases [1, 5]: 19 | cathepsin D-ir (cathepsin D; [6]): did not cause substantial increases in cathepsin D-ir | number of ED-1 positive cells (reactive microglia): did not cause a noticeable increase in the number of ED-1 positive cells

B1: integrin antagonist peptide Gly-Arg-Gly-Asp-Ser-Pro (GRGDSP) (peptide)
peptide: GRGDSP
Aβ positive cases (slices with intraneuronal Aβ1-42 immunoreactivity), Aβ + RGD, of 61 slices tested (slices (of 61 tested)) (RGD-binding integrins): 54 | increase in size (mean area) of Aβ-ir elements in CA1 stratum pyramidale, relative to Aβ alone (RGD-binding integrins): 101% | total area encompassed by Aβ-immunoreactive elements, relative to Aβ alone (RGD-binding integrins): 324%

B2: inactive control peptide Gly-Arg-Ala-Asp-Ser-Pro (GRADSP) (peptide)
peptide: GRADSP
Aβ positive cases (slices with intraneuronal Aβ1-42 immunoreactivity), Aβ + RAD, of 16 slices tested (slices (of 16 tested)) (RGD-binding integrins): 9
